Here are results for 7 molecules from patent US9839644B2, “Formulations and methods for treatment of metabolic syndrome” (ARKAY Therapeutics, LLC, priority 2014, dated 2017).

Assay [1] concerns C57BL/6J obese mice. As to conditions: cited from earlier work.
Assay [2] deals with C57BL/6J obese mice. To be noted: cited from earlier work. This is another data set of the same source.
The subject of assay [3] is pancreatic beta cells. As to conditions: cited from earlier work.
The test system of assay [4] is male Sprague Dawley rats fed with High fructose diet or High fat diet (HFD). As to conditions: rat, in vivo; cited from earlier work.
The conditions of assay [5]: clinical study; cited from earlier work.
Assay [6] concerns obese patients with T2DM. To be noted: translational preclinical models and obese patients with T2DM; cited from earlier work.
The test system of assay [7] is C57BL/6J mice. As to conditions: mouse, in vivo; cited from earlier work.
For assay [8], the system named is C57BL/6J diet-induced obese (DIO) mice. To be noted: cited from earlier work.
Assay [9] has as its system C57BL/6J DIO mice. To be noted: Metformin alone (150 mg/Kg/day), 29-day study.
Description: Age and weight-matched C57BL/6J lean and DIO male mice were obtained from Jackson Labs (Bar Harbor, Me.). C57BL/6J DIO mice were fed high-fat diet (HFD) for 16 weeks to induce hepatic insulin resistance and pancreatic beta cell dysfunction. […] Lean control mice were maintained on D12450B (10% Kcal fat) Chow diet and DIO animals were maintained D12492 (60% KCal fat) research diets. Tap water was available ad libitum during the study. Animals were acclimated for a week. […] Test articles or the drugs were reconstituted in DMSO and 0.5% Methyl cellulose was used as the vehicle.
In a 29-day study, sub-maximal dose of Metformin (150 mg/Kg/day) and sub-maximal doses of Celecoxib (10 mg/Kg/day or 20 mg/Kg/day) were administered together or the vehicle was administered as an oral gavage in the morning and a sub-hypertensive dose of Valsartan (2 mg/Kg/day) or the vehicle was administered 6 hours later. Non-fasting BG measurements will be taken on Days 1, 15, 22, and 29. Animals were transferred to clean cages, food and water were uninterrupted. A blood sample was collected via tail nick and blood glucose was assessed using a hand-held Glucometer. Body weights were determined twice weekly for the duration of the study period.
For assay [10], the system named is subjects with impaired glucose metabolism. To be noted: 26 weeks; cited from earlier work.
Assay [11] relates to prediabetes patients. As to conditions: cited from earlier work.
Assay [12] relates to C57BL/6J diet-induced obese (DIO) mice. To be noted: cited from earlier work. The source holds these as a separate data set.

Entries after “also recorded” stand apart in the source; their conditions may differ.

For `NS(=O)(=O)c1ccc(-n2nc(C(F)(F)F)cc2-c2ccc(Cl)cc2)cc1` [SC58236], the HbA1c levels result in [1] (C57BL/6J obese mice) is “reduces”. In addition, the “reduction of HbA1c levels” value in assay [1] (selective Cox-2 inhibition) is reported as “about 0.4%”. The “glucose tolerance (IPGTT)” value in assay [2] (6 hour fast, glucose 2 g/Kg) is reported as “improves”. The plasma insulin levels entry in [2] (after glucose injection) is “elevates”.
On to `CS(=O)(=O)Nc1ccc([N+](=O)[O-])cc1OC1CCCCC1` [NS-398], for which, in [3], the beta cell dysfunction result is given as “reverses”.
For `CS(=O)(=O)Nc1ccc([N+](=O)[O-])cc1Oc1ccccc1` [Mesulid], in [4], the insulin sensitivity result is “restore”, the low-grade inflammation entry is recorded as “reverse” and the oxidative stress result is “reduce”.
With `O=C(Oc1ccccc1C(=O)O)c1ccccc1O` [Salsalate], in assay [5], the “reduction of glycosylated hemoglobin A1c, average” value is on record as 0.37%. In [6], the systemic insulin sensitivity result is listed as “restore”.
Regarding `COc1ccc2c(c1)c(CC(=O)O)c(C)n2C(=O)c1ccc(Cl)cc1` [Indomethacin], the “HFD-induced obesity and insulin resistance” value in [7] is listed as “prevented”.
Consider `CN(C)C(=N)N=C(N)N` [Metformin], for which the “glucose tolerance (OGTT)” value in assay [8] (2 g/Kg glucose after 20 hour fast, 0.25% and 0.5% Metformin = 150 and 300 mg/Kg/day) is “improves”. Also, in assay [8] (C57BL/6J DIO model), the HFD-induced insulin resistance result is on record as “ameliorates”. For the same molecule, the “elevated non-fasting BG levels” value in assay [9] is “actually enhanced; also recorded: did not suppress”.
For `CCCCC(=O)N(Cc1ccc(-c2ccccc2-c2nnn[nH]2)cc1)[C@H](C(=O)O)C(C)C` [Valsartan], the “beta cells function and insulin sensitivity” value in assay [10] was “improved”. Besides, the “onset of Type II diabetes” value in [11] is recorded as “delay the onset”. In addition, the systolic blood pressure entry in [12] (1 mg/Kg/day, C57BL/6J obese mice) is “no effect”. In [12] (overnight fast, IP 2 g/Kg glucose), the glucose tolerance result is listed as “improves”. Also, the impaired glucose tolerance result in assay [12] (sub-hypertensive dose 1 mg/Kg/day, C57BL/6J obese mice) was “improves”.
